{"source": "paper PMC7411887", "about": "“New Paracyclophanylthiazoles with Anti-Leukemia Activity: Design, Synthesis, Molecular Docking, and Mechanistic Studies” (Molecules, 2020)", "key": {"ROS in SR cells": {"test_system": "ROS in SR cells", "experiment": "Mitochondrial production of ROS", "type": "cell-based, human", "details": "30 min at 37 °C", "description": "Mitochondria play an essential role in the propagation of apoptosis. It is reported that, at an early stage, apoptotic stimuli are capable of modifying the mitochondrial transmembrane potential (Δψmt). Δψmt was recorded by the fluorescence of the dye JC-1.20. […] . The disruption of Δψmt is associated with the appearance of annexin V positivity in the treated cells when they are in an early apoptotic stage. It is documented that the dissipation of Δψmt is characteristic of apoptosis, and this was indicated with both microtubule-stabilizing and -destabilizing agents in different cell types. […] Mitochondrial membrane depolarization is associated with mitochondrial production of ROS [35]. Therefore, we investigated whether ROS production increased after treatment with the test compounds.\nFigure 13 Mitochondrial production of ROS in SR cells with 3a and colchicine reference compared to control. […]\n5. Adjust the cell concentration so at least 1 x10^4 cells should be analyzed per experimental condition. […] Mean fluorescence intensity in Ex/Em = 495/529 nm can be quantified and compared between untreated cells and cells treated with test compounds, or between different cell types. […]\n4. For adherent cells: remove the ROS Label, add 100 μl of ROS Assay Buffer or PBS and measure fluorescence immediately, or treat the cells with 100 μL of diluted test compound(s) for desired period of time. […]"}, "NCI-H460": {"test_system": "NCI-H460", "experiment": "NCI five-dose assay", "type": "cell-based", "details": "Non-Small-Cell Lung Cancer NCI-H460"}, "HCT-116": {"test_system": "HCT-116", "experiment": "NCI five-dose assay", "type": "cell-based", "details": "Colon Cancer HCT-116"}, "SW-620": {"test_system": "SW-620", "experiment": "NCI five-dose assay", "type": "cell-based, human", "details": "Colon Cancer SW-620"}, "SNB-19": {"test_system": "SNB-19", "experiment": "NCI five-dose assay", "type": "cell-based", "details": "CNS Cancer SNB-19"}, "EKVX": {"test_system": "EKVX", "experiment": "NCI five-dose assay", "type": "cell-based", "details": "Non-Small-Cell Lung Cancer EKVX"}, "SK-MEL-2": {"test_system": "SK-MEL-2", "experiment": "NCI five-dose assay", "type": "cell-based", "details": "Melanoma SK-MEL-2"}, "SF-295": {"test_system": "SF-295", "experiment": "NCI five-dose assay", "type": "cell-based", "details": "CNS Cancer SF-295"}, "OVCAR-4": {"test_system": "OVCAR-4", "experiment": "NCI five-dose assay", "type": "cell-based, human", "details": "Ovarian Cancer OVCAR-4"}, "NCI-H522": {"test_system": "NCI-H522", "experiment": "NCI five-dose assay", "type": "cell-based", "details": "Non-Small-Cell Lung Cancer NCI-H522"}, "MDA-MB-468": {"test_system": "MDA-MB-468", "experiment": "NCI five-dose assay"}, "NCI-H23": {"test_system": "NCI-H23", "experiment": "NCI five-dose assay", "type": "cell-based", "details": "Non-Small-Cell Lung Cancer NCI-H23"}, "SF-539": {"test_system": "SF-539", "experiment": "NCI five-dose assay", "type": "cell-based", "details": "CNS Cancer SF-539"}, "OVCAR-8": {"test_system": "OVCAR-8", "experiment": "NCI five-dose assay", "type": "cell-based", "details": "Ovarian Cancer OVCAR-8"}, "RXF393": {"test_system": "RXF393", "experiment": "NCI five-dose assay", "type": "cell-based", "details": "Renal Cancer RXF393"}, "SK-OV-3": {"test_system": "SK-OV-3", "experiment": "NCI five-dose assay", "type": "cell-based", "details": "Ovarian Cancer SK-OV-3"}, "[1]": {"details": "Homo sapiens, read-out: GI50 Concentration/Cell Line"}, "[2]": {"details": "Homo sapiens, read-out: LC50 (the source's name)"}}}
{"smiles": "COc1cc2c(c(OC)c1OC)-c1ccc(OC)c(=O)cc1[C@@H](NC(C)=O)CC2", "note": "[Colchicine, colchicine, reference compound]", "values": [{"measurement": "ROS % of control", "setting": "ROS in SR cells", "value": 96.18, "unit": "%"}]}
{"smiles": "COC(=O)C=C1SC(=NNC(=O)c2cc3ccc2CCc2ccc(cc2)CC3)N(c2ccccc2)C1=O", "note": "[Compound 3a]", "values": [{"measurement": "LC50 (50% lethal concentration)", "setting": "NCI-H460; Homo sapiens", "value": 8.82, "unit": "µM"}, {"measurement": "GI50", "setting": "NCI-H460; [1]", "value": 2.08, "unit": "µM"}, {"measurement": "TGI Concentration/Cell Line", "setting": "NCI-H460", "value": 4.29, "unit": "µM"}, {"measurement": "ROS % of control", "setting": "ROS in SR cells", "value": 112.10, "unit": "%"}, {"measurement": "TGI Concentration/Cell Line", "setting": "HCT-116", "value": 3.66, "unit": "µM"}, {"measurement": "LC50", "setting": "HCT-116; Homo sapiens", "value": 7.51, "unit": "µM"}, {"measurement": "GI50", "setting": "HCT-116; [1]", "value": 1.79, "unit": "µM"}, {"measurement": "TGI Concentration/Cell Line", "setting": "SW-620", "value": 3.66, "unit": "µM"}, {"measurement": "LC50 (concentration killing 50% of cells)", "setting": "SW-620; Homo sapiens", "value": 7.23, "unit": "µM"}, {"measurement": "GI50", "setting": "SW-620; [1]", "value": 1.85, "unit": "µM"}, {"measurement": "TGI Concentration/Cell Line", "setting": "SNB-19", "value": 4.25, "unit": "µM"}, {"measurement": "LC50 (concentration killing 50% of cells)", "setting": "SNB-19; Homo sapiens", "value": 9.26, "unit": "µM"}, {"measurement": "GI50", "setting": "SNB-19; [1]", "value": 1.95, "unit": "µM"}, {"measurement": "GI50", "setting": "EKVX; [1]", "value": 1.91, "unit": "µM"}, {"measurement": "CC50", "setting": "EKVX; [2]", "value": 9.38, "unit": "µM"}, {"measurement": "TGI Concentration/Cell Line", "setting": "EKVX", "value": 4.23, "unit": "µM"}, {"measurement": "LC50 (concentration causing 50% net cell kill)", "setting": "SK-MEL-2; Homo sapiens", "value": "> 100", "unit": "µM"}, {"measurement": "GI50", "setting": "SK-MEL-2; [1]", "value": 2.65, "unit": "µM"}, {"measurement": "TGI Concentration/Cell Line", "setting": "SK-MEL-2", "value": 7.76, "unit": "µM"}, {"measurement": "TGI Concentration/Cell Line", "setting": "SF-295", "value": 4.19, "unit": "µM"}, {"measurement": "LC50", "setting": "SF-295; Homo sapiens", "value": 8.5, "unit": "µM"}, {"measurement": "GI50", "setting": "SF-295; [1]", "value": 2.07, "unit": "µM"}, {"measurement": "GI50", "setting": "OVCAR-4; [1]", "value": 3.17, "unit": "µM"}, {"measurement": "TGI Concentration/Cell Line", "setting": "OVCAR-4", "value": 9.88, "unit": "µM"}, {"measurement": "LC50", "setting": "NCI-H522; Homo sapiens", "value": "> 100", "unit": "µM"}, {"measurement": "GI50", "setting": "NCI-H522; [1]", "value": 4.89, "unit": "µM"}, {"measurement": "TGI Concentration/Cell Line", "setting": "NCI-H522", "value": ">100", "unit": "µM"}, {"measurement": "TGI Concentration/Cell Line", "setting": "MDA-MB-468; Breast Cancer MDA-MB-468", "value": 3.74, "unit": "µM"}, {"measurement": "GI50", "setting": "MDA-MB-468; Homo sapiens, MDA-MB-468, read-out: GI50 Concentration/Cell Line", "value": 1.84, "unit": "µM"}, {"measurement": "CC50", "setting": "MDA-MB-468; Homo sapiens, MDA-MB-468, read-out: LC50", "value": 7.61, "unit": "µM"}, {"measurement": "LC50 (NCI lethal concentration, 50% cell kill)", "setting": "NCI-H23; Homo sapiens", "value": 8.85, "unit": "µM"}, {"measurement": "GI50", "setting": "NCI-H23; [1]", "value": 1.95, "unit": "µM"}, {"measurement": "TGI Concentration/Cell Line", "setting": "NCI-H23", "value": 4.15, "unit": "µM"}, {"measurement": "TGI Concentration/Cell Line", "setting": "SF-539", "value": 3.32, "unit": "µM"}, {"measurement": "GI50", "setting": "SF-539; [1]", "value": 1.79, "unit": "µM"}, {"measurement": "CC50", "setting": "SF-539; [2]", "value": 6.18, "unit": "µM"}, {"measurement": "GI50", "setting": "OVCAR-8; [1]", "value": 3.08, "unit": "µM"}, {"measurement": "CC50", "setting": "OVCAR-8; [2]", "value": "> 100", "unit": "µM"}, {"measurement": "TGI Concentration/Cell Line", "setting": "OVCAR-8", "value": ">100", "unit": "µM"}, {"measurement": "LC50 (50% lethal concentration)", "setting": "RXF393; Homo sapiens, RXF 393", "value": "> 100", "unit": "µM"}, {"measurement": "TGI Concentration/Cell Line", "setting": "RXF393", "value": 3.86, "unit": "µM"}, {"measurement": "LC50 (NCI lethal concentration, 50% cell kill)", "setting": "SK-OV-3; Homo sapiens", "value": "> 100", "unit": "µM"}, {"measurement": "GI50", "setting": "SK-OV-3; [1]", "value": 3.55, "unit": "µM"}, {"measurement": "TGI Concentration/Cell Line", "setting": "SK-OV-3", "value": 7.53, "unit": "µM"}]}
